From patent US8309596B2, “Kallikrein 7 modulators” (Novartis AG, priority 2007, dated 2012) come the findings set out here.

Marks after values point to notes of the source that are not given here.

The test system of one test is swine. In words: Anti-inflammatory activity in swine model of allergic contact dermatitis (ACD), DNFB. Type of test: in vivo. The procedure:
Eight days before the elicitation of the ACD, […] of 10% 2,4-dinitrofluorobenzene (DNFB, dissolved in DMSO/acetone/olive oil [1/5/3, v/v/v]) are applied epicutaneously in divided volumes onto the basis of both ears and onto both groins (100 μl/site) for sensitization. The challenge reactions are elicited with 15 μl of DNFB (1.0%) on contralateral test sites (each 7 cm^2 in size) of the shaved dorsolateral back. For treatment, the compound of example 11 (=Test compound 2) and the placebo (solvent only) are applied contralaterally to 2 test sites in each animal 0.5 and 6 hours after the challenge. The test sites are clinically examined 24 hours after the challenge when inflammation peaks. The changes are scored on a scale from 0 to 4 (Table XY), allowing a combined maximal score of 12 per designated site. Skin reddening is measured reflectometrically using a* values (see Table 3)

A further test deals with Kallikrein-7 (Homo sapiens, UniProt P49862). As to the kind of experiment: Kallikrein-7 inhibition, fluorescence-quenched substrate, determination of IC50 values. Type of test: biochemical. The conditions noted are these: pH 5.6, 1 hour preincubation, 0.2 nM protease, 2 μM substrate, room temperature. On the procedure:
The fluorescence-quenched substrate Ac-Glu-Asp(EDANS)-Lys-Pro-Ile-Leu-Phe^Arg-Leu-Gly-Lys(DABCYL)-Glu-NH2 (where ^ indicates the scissile bond, identified by MS analysis) is purchased from Biosyntan (Berlin, Germany) and kept as a 5 mM stock solution in DMSO at −20° C. All other chemicals are of analytical grade.
Enzymatic reactions are conducted in 50 mM sodium citrate buffer at pH 5.6 containing 150 mM NaCl and 0.05% (w/v) CHAPS.
All protein and peptide containing solutions are handled in siliconized tubes (Life Systems Design, Merenschwand, Switzerland). […]
For fluorescence intensity (FI) measurements an Ultra Evolution reader (TECAN, Maennedorf, Switzerland) is used. The instrument is equipped with a combination of a 350 nm (20 nm bandwidth) and a 500 nm (25 nm bandwidth) bandpath filter for fluorescence excitation and emission acquisition, respectively. […]
For the determination of IC50 values the assay is performed at room temperature in 384-well plates. […] The protease concentration in final assay solution is 0.2 nM (according to the enzyme concentrations determined by the Bradford method). […] The effect of the compound on the enzymatic activity is obtained from the linear progress curves and determined from two readings, the first one taken directly after the addition of substrate and the second one after 1 hour. […]

For a further test, the system named is hairless SKH1 mice. As to the kind of experiment: Test on recovery of skin barrier disruption in mice (TEWL). The conditions noted are these: 10 mM. The format is in vivo. On the procedure: Method: Skin barrier disruption is achieved in groups of hairless SKH1 mice with repeated stripping of the skin with S-Sqame® skin sampling disks. The procedure is completed when transepidermal water loss (TEWL) achieved ≧[…]. TEWL is assessed with a Tewameter TM210 (Courage Khazaka, Cologne, Del.). Immediately after barrier disruption 30 μl of the compound of example 37(=Test compound 1) is applied at 10 mM concentration. Controls animals are treated similarly with the solvent (EtOH/propylene glycol, 3/7 (v/v)) alone. TEWL is measured before, immediately after, and at 3 hrs after barrier disruption. In each animal, the percentage recovery is calculated using the formula: (1−[TEWL at 3 hrs−base line TEWL]/[TEWL immediately after stripping−base line TEWL])×100%.

The subject of another test is Crl:NMRI mice. As to the kind of experiment: Anti-inflammatory activity in murine model of irritant contact dermatitis (ICD), TPA-induced. The format is in vivo. The conditions noted are these: for % Inhibition inflammatory swelling [Mean ± SEM values]: 10 μl topically 30 minutes prior to TPA challenge, auricular weight 6 hours after challenge, n 24. The procedure: Method: Crl:NMRI mice are challenged with 10 μl 0.005% phorbol 12-myristat-13-acetate (TPA) on the inner surface of the right ear. The unchallenged left ears serve as normal controls and dermatitis is evaluated from the difference in auricular weight (taken as a measure of inflammatory swelling) 6 hours after the challenge. The animals are treated topically with 10 μl of the test compound 1 or the solvent 30 minutes prior to the challenge. The efficacy of the treatment is calculated as the percentage inhibition of inflammatory auricular swelling relative to animals treated with the vehicle alone.

Kallikrein-7, sequence (P49862 30-253): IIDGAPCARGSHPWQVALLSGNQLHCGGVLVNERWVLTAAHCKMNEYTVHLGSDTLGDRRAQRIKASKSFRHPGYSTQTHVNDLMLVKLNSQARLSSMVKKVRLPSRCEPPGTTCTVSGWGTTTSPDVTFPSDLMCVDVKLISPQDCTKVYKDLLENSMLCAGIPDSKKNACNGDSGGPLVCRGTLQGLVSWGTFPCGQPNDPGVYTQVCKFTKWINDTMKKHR

On to `C#Cc1ccc2cccc(CNC(=O)N3CCC[C@H]3C(=O)NCc3cccnc3)c2c1` [Example 11, (S)-Pyrrolidine-1,2-dicarboxylic acid 1-[(7-ethynyl-naphthalen-1-ylmethyl)-amide] 2-[(pyridin-3-ylmethyl)-amide]], for which the “A* value (Mean, SD, n: 8), skin reddening measured reflectometrically” value in the test with swine (1% solution applied 0.5 and 6 hours after challenge, 24 hours after challenge) is 7.7 (1.6). For the same compound, the “Clinical score (Mean, SD, n: 8)” value with swine (1% solution applied 0.5 and 6 hours after challenge, examined 24 hours after challenge, maximal score 12) is given as 4.1 (1.3). The “Inhibition vs placebo-treated sites, Clinical score” value in the test with swine (1% solution, Mean, SD) is on record as 42.4 (11.1). In addition, the “inhibition of clinical inflammatory changes” value in the test on swine (1% solution, p<0.01) is 42%.
Take `O=C(NCc1cccnc1)[C@@H]1[C@H]2C[C@H]2CN1C(=O)NCc1cccc2ccc(Cl)cc12` [Example 36, (1S,2S,5R)-3-aza-bicyclo[3.1.0]hexane-2,3-dicarboxylic acid 3-[(7-chloro-naphthalen-1-ylmethyl)-amide] 2-[(pyridin-3-ylmethyl)-amide]]: the IC50 on Kallikrein-7 stood at 3 nM.
Consider `COc1ccc(CCNC(=O)[C@@H]2[C@H]3C[C@H]3CN2C(=O)NCc2cccc3ccc(Cl)cc23)cc1` [Example 37, (1S,2S,5R)-3-aza-bicycic[3.1.0]hexane-2,3-dicarboxylic acid 3-[(7-chloro-naphthalen-1-ylmethyl)-amide] 2-{[2-(4-methoxy-phenyl)-ethyl]-amide}], for which the “% Recovery in barrier disruption Mean (SD values)” value with hairless SKH1 mice (30 μl applied immediately after barrier disruption, TEWL at 3 hrs, n: 8 or 12 animals per group) is 76 (3.3)*** %. For the same compound, the “acceleration of barrier repair compared to repair in mice treated with the solvent alone” value in the test on hairless SKH1 mice (single application, p<0.001) was 65-76%. Moreover, the “% Inhibition inflammatory swelling [Mean ± SEM values]” value in the test on Crl:NMRI mice (10 mM) is recorded as 41 ± 5.3***^24%; with Crl:NMRI mice (30 mM) it was 73 ± 7.0***^24%. Also, the “inhibition of inflammatory swelling” value in the test on Crl:NMRI mice (20 mM concentrations as printed in text) was 54-73%.
